[invAb] = inverted abasic unit; m = 2'-O-methyl; r = 2'-OH (RNA); f = 2'-fluoro
Experiments:
α-SMA mRNA = assay: Inhibition of α-SMA mRNA induction by TGF-β1 in HLF cells; type: cell-based, human; details: for Inhibition of upregulation of α-SMA mRNA by TGF-β1: 10 nM siNA, FIG. 12
Experimental: A549 cells (ECACC, 86012804) were maintained in Dulbecco's Modified Eagle Medium (DMEM) containing 10% Fetal Calf Serum (FCS), 2 mM L-glutamine, 100 U/ml penicillin and 100 μg/ml streptomycin (all from GIBCO). Sub-confluent cultures (2.7×10^3 cells/cm^2) were seeded in collagen-coated multi-well plates (Becton Dickenson) and grown for three days. Cells were quiesced using the same medium containing 0.5% FCS, for 24 hours prior to stimulation with cytokines. Cells were incubated with 0-10 ng/ml TGF-(31 for the periods indicated. Normal Human Lung Fibroblasts (HLFs) were obtained from Lonza and maintained in Fibroblast Growth Medium supplemented with growth factors (Lonza #CC-3132); final serum concentration of medium was 2%. HLFs were treated with cytokines in serum-free medium. Normal Human Bronchial Epithelial cells (NHBEs, also obtained from Lonza) were maintained and transfected in Lonza BEBM with SingleQuots (Lonza #CC-3170). All growth factors from the kit were added, except retinoic acid. All cultures were maintained at 37° C. in a humidified incubator with 5% CO2 atmosphere.
Cells were harvested at time points appropriate for the experiment. Supernatants were removed and stored at −70° C. until analysis. Cells were washed using Dulbecco's Phosphate Buffered Saline (DPBS, GIBCO), prior to lysis. RNA lysates for Taqman analysis were produced using Promega RNA lysis buffer. All lysates were stored at −70° C. until use.
Cells were seeded on 96-well tissue culture plates (A549s and NHBEs, collagen-coated plates at densities of 5×10^3 and 1.2×10^4 respectively; HLFs on flat-bottom tissue culture plates, at 1×10^4 cells per well) in 100 μl of growth medium. […] Knockdown is calculated compared to CTGF expression of cells transfected with the universal control siNA.
RNA was isolated using a Biomek 2000 robot and Promega SV 96 Total RNA Isolation kits. cDNA was synthesised using a High Capacity cDNA Reverse Transcription Kit (Applied Biosciences) on a 96-well thermal cycler. […] Plates were analysed using an ABI Taqman RT-PCR machine, and SDS 2.2 Automation Controller software. […]

[1] = test system: collagen secretion (PICP) by HLF cells; assay: Pro-collagen Type I C-terminal Pro-peptide (PICP) MSD assay, collagen secretion by HLF cells; type: cell-based, human; details: TGF-β1 treated, vs universal control siNA, FIG. 13
Experimental: A Pro-collagen Type I C-terminal Pro-peptide (PICP) MSD assay was done on HLF cells transfected with siNAs and treated with TGF-β1. Supernatant from the HLF cells transfected with siNAs and treated with TGF-β1, was removed 72 hours after transfection and 48 hours after treatment. Plates and reagents (except antibodies) were purchased from Meso Scale Discovery. High bind, small spot 96 well MSD plates were spotted with 20 ng/well of the capture antibody (pro-collagen type I C-terminal pro-peptide, human PICP, Caltag Medsystmes) using a TTP LabTech Mosquito. Plates were left to dry for 48 hours before use. The MSD assay was performed as outlined: Plates were blocked with 30 mg/ml Blocker A, sealed and then shook on a plate shaker for 1 hour at RT. Plates were washed 3× with MSD Tris wash buffer. 25 μl of the supernatants were added for 1 hour on a plate shaker, plates were washed as before. The detection antibody (Anti-pro-collagen type I C-terminal pro-peptide, human PICP, Caltag Medsystmes Ltd) was diluted to 800 ng/ml in 10 mg/ml blocker A solution. This antibody had previously been Sulfo-Tagged using Sulfo-Tag NHS Ester (MSD) according to manufacturer's instructions. 25 μl of the diluted sulfo-tagged detection antibody was added, and left as before on a plate shaker for 1 hour. […] 150 μl of 1× Read buffer T was added per well, and the plates read on the MSD sector reader. […]

Row | Substance | Inhibition of upregulation of α-SMA mRNA by TGF-β1 (α-SMA mRNA) | α-SMA expression levels relative to untreated cells (α-SMA mRNA; 5 and 10 ng/ml TGF-β1) | Collagen secretion (PICP secretion) induced by TGF-β1 [1]
1 | 48042-DC: siNA duplex; sense SEQ ID NO: 49 B GAcAuuAAcucAuuAGAcu TTB; antisense SEQ ID NO: 50 AGUcuAAuGAGuuAAuGucUU (sense GACAUUAACUCAUUAGACUTT; antisense AGUCUAAUGAGUUAAUGUCUU; sense: DNA at AGT, 2'-fluoro at CU, [invAb] at 5' end, 3' end, backbone not given here; antisense: sugars from the 5' end rrrffmmfmmmffmmfmffmm, backbone not given here) | significantly inhibited the upregulation of α-SMA | comparable to untreated cells | returned the levels of PICP secretion to near basal levels
2 | 48048-DC: siNA duplex; sense SEQ ID NO: 61 B GAuAGcAucuuAuAcGAGu TTB; antisense SEQ ID NO: 62 ACUcGuAuAAGAuGcuAucUU (sense GAUAGCAUCUUAUACGAGUTT; antisense ACUCGUAUAAGAUGCUAUCUU; sense: DNA at AGT, 2'-fluoro at CU, [invAb] at 5' end, 3' end, backbone not given here; antisense: sugars from the 5' end rrrfmfmfmmmmfmffmffmm, backbone not given here) | consistent but not significant knockdown of α-SMA |  | returned the levels of PICP secretion to near basal levels

Source: patent publication US20120016011A1, “RNA Interference Mediated Inhibition of Connective Tissue Growth Factor (CTGF) Gene Expression Using Short Interfering Nucleic Acid (siNA)” (Merck Sharp & Dohme Corp., priority 2009, published 2012)
